From US20250057785A1, “APPLICATION OF 10'(Z), 13'(E), 15'(E)-HEPTADECATRIENYL HYDROQUINONE (HQ17(3)) IN TREATING CORONAVIRUS INFECTION” (National Atomic Research Institute, priority 2023, published 2025)

Columns and labels:
[1] = intraperitoneal injection of 1 mg/kg daily for 28 days, F344 rats; cited from earlier work
[2] = test system: novel coronavirus (SARS-COV-2); experiment: Vero E6 cells plaque assay of SARS-COV-2 replication; format: cell-based
blood cancer HL-60 cells = details: 5 uM, cultured for 48 hours; cited from earlier work
[3] = test system: peripheral white blood cells; details: cited from earlier work

C/C=C/C=C/C/C=C\CCCCCCCCCc1cc(O)ccc1O [HQ17(3), 10′(Z), 13′(E), 15′(E)-Heptadecatrienyl hydroquinone]
toxicity in rats [1]: no toxicity was observed
virus inhibition rate (viral plaques) ([2]; 10 uM HQ17(3), stock in 0.1% DMSO, Vero E6 cells, one week): more than 60%
EC50 ([2]; Severe acute respiratory syndrome coronavirus 2, Vero C1008, 168 h, read-out: EC50, inhibition of SARS-COV-2 replication in cells by 50%): 8.5 ± 0.96 µM
replication of HL-60 cells (blood cancer HL-60 cells): the replication of blood cancer HL-60 cells was stopped
effect on peripheral white blood cells ([3]; 5 uM): no effect on peripheral white blood cells
toxicity on peripheral white blood cells ([3]; 50 uM): no toxicity on peripheral white blood cells was observed
